Experimental data: ChEMBL document CHEMBL1201862, “PubChem BioAssay data set” (2004)
The source made the active and inactive calls.

Columns and labels:
[1] = HEK-293T viability loss after treatment – luminescence, T-cell screen hits, cytotoxicity control for TCR NF-kB inhibitor project, dose response (AID 489026); format: functional, cell-based;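 also: cells exposed to compound about 14 hours before the viability readout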
[2] = molecular target: T1, E3 ubiquitin-protein ligase XIAP (Homo sapiens, UniProt P98170); test: Counter Screen using XIAP-Bir3 for Chemical Antagonists of Bir1/2 domains of IAP-family anti-apoptotic proteins. [Related pubchem assays (depositor defined):AID1018, AID1449, AID1514, AID1638, AID1749, AID1750, AID488957, AID488963]
T1 sequence (P98170 whole entry): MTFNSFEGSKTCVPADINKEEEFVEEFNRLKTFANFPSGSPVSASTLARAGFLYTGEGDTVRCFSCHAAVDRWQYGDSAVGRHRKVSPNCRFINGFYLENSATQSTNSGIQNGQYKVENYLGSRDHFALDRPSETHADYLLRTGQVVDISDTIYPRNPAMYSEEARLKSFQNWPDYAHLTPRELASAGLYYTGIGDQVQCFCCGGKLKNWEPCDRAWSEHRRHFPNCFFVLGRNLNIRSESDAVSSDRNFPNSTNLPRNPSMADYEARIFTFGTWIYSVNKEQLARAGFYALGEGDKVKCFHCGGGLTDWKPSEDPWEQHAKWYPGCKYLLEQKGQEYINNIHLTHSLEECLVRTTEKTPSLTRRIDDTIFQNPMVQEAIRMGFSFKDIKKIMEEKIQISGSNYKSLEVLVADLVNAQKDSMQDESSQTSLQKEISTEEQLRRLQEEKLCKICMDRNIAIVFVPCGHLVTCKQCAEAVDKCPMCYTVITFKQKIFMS

[3] = molecular target: T1, E3 ubiquitin-protein ligase XIAP; test: small molecules displacing peptide from XIAP – biochemical, IAP family, fluorescence polarization (AID 1018); format: functional
[4] = THP-1 cell cytotoxicity, dose response, cytotoxicity control for non-replicating M. tuberculosis project (AID 489025); format: functional
cells = format: functional
[5] = Vero E6 cell cytotoxicity, dose response, cytotoxicity control for non-replicating M. tuberculosis project, secondary assay (AID 492998); format: functional, VeroE6; settings: Vero C1008
[6] = molecular target: DNA dC->dU-editing enzyme APOBEC-3G (Homo sapiens, UniProt Q9HC16); test: Dose Response confirmation of small molecule APOBEC3G DNA Deaminase Inhibitors via a fluorescence-based single-stranded DNA deaminase assay. [Related pubchem assays (depositor defined):AID493012, AID493028]; format: functional
Chain of DNA dC->dU-editing enzyme APOBEC-3G (Q9HC16 whole entry): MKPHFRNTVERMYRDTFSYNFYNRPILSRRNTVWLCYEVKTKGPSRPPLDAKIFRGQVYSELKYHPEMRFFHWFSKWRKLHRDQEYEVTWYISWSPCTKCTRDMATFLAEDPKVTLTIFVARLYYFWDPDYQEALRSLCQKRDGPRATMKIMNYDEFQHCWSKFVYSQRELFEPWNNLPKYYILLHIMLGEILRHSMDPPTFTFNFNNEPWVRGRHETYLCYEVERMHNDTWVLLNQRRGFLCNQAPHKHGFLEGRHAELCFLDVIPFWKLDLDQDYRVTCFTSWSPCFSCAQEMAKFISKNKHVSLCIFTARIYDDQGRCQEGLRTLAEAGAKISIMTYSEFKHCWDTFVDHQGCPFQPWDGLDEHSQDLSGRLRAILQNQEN

[7] = molecular target: T2, Voltage-gated N-type calcium channel alpha-1B subunit/Amyloid beta A4 precursor protein-binding family A member 1 (Homo sapiens, UniProt Q00975+Q02410); format: protein assay
T2 sequence (Q00975 whole entry): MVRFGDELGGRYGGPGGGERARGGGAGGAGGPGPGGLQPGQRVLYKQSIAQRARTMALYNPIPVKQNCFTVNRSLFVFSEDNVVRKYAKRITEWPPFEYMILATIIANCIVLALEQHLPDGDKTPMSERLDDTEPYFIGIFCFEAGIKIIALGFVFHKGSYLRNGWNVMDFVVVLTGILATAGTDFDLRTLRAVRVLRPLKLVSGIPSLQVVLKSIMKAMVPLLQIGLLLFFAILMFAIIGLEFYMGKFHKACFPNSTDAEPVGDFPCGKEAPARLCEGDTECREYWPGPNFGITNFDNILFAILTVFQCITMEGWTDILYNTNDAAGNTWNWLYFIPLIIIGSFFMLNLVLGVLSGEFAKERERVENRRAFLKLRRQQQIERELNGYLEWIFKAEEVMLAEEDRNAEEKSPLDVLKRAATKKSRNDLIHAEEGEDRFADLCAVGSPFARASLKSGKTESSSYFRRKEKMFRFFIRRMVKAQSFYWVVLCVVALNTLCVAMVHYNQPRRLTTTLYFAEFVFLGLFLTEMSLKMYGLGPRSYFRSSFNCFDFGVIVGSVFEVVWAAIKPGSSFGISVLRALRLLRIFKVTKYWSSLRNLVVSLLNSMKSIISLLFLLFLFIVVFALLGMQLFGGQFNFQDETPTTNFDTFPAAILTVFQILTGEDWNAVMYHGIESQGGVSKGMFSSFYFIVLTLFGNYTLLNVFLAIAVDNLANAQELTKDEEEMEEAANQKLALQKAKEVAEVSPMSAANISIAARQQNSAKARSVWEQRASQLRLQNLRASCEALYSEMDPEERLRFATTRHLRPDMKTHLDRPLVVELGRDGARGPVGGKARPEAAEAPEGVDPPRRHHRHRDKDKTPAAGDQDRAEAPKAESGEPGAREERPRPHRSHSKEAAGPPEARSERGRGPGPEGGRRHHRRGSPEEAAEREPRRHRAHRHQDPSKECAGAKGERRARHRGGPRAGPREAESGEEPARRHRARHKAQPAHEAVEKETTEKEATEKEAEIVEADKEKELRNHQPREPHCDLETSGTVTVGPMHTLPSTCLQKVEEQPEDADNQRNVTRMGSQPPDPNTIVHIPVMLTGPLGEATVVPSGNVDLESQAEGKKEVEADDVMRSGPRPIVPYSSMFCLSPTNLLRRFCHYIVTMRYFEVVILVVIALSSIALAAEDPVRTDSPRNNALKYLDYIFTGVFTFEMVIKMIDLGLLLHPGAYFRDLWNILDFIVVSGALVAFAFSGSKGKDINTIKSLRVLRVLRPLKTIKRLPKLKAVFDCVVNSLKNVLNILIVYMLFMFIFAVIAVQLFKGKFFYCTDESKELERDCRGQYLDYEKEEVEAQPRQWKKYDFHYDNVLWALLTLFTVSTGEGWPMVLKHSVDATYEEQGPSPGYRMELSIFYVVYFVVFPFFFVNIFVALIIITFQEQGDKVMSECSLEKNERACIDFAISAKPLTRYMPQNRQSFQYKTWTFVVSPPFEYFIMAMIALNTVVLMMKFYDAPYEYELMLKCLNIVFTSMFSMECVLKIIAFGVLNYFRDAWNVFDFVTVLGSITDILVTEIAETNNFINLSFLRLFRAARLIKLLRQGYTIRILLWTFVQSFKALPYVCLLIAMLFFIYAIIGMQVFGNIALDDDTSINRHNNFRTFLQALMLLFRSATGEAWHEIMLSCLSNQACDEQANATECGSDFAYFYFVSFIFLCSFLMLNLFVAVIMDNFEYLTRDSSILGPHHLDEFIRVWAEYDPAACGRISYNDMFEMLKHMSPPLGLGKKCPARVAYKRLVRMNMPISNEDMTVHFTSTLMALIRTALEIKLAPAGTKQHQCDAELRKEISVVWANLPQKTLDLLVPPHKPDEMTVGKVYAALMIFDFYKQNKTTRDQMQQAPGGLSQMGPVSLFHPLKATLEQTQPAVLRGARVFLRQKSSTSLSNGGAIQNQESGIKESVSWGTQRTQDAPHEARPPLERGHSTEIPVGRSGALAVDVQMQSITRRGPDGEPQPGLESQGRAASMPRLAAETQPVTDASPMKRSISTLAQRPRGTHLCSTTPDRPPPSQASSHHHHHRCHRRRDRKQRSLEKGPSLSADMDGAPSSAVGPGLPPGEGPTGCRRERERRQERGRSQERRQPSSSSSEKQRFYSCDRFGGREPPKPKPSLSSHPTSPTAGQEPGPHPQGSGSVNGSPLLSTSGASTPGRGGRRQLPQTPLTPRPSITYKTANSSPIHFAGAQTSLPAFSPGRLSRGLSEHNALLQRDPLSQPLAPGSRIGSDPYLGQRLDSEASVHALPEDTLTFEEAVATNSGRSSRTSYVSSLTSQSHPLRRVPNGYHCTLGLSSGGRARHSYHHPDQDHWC
T2 sequence (Q02410 whole entry): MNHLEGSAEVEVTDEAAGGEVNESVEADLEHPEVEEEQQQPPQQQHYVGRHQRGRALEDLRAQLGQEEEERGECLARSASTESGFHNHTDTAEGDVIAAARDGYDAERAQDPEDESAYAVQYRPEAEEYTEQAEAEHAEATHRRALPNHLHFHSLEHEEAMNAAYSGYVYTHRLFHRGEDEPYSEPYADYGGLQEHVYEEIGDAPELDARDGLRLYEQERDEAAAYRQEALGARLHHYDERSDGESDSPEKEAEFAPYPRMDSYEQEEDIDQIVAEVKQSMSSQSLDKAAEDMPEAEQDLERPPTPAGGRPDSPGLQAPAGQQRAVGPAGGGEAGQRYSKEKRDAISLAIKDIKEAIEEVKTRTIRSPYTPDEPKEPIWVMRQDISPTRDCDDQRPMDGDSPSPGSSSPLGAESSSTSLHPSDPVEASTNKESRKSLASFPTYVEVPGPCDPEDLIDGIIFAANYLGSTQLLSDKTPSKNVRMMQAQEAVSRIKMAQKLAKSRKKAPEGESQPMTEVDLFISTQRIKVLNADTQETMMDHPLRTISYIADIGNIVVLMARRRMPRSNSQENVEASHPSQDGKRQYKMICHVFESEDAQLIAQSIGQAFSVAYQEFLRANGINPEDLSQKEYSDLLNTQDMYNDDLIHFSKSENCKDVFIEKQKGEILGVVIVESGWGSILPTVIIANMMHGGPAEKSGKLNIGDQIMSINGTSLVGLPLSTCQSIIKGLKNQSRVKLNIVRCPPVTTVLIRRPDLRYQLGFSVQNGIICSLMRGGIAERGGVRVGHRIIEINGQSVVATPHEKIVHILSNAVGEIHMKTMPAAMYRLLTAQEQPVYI

[8] = Luminescence Cell-Based Dose Retest to Confirm Inhibitors of Cancer Stem Cells. [Related pubchem assays (depositor defined):AID2717, AID2721]; format: functional; settings: Homo sapiens
[9] = molecular target: T3, Heat shock factor protein 1 (Mus musculus, UniProt P38532); test: decrease of HSF1-responsive luciferase luminescence – cell-based, NIH3T3, dose retest, confirmation (AID 2382); format: functional;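 also: NIH3T3 fibroblasts with HSF1-driven luciferase reporter stressed by proteasome inhibitor MG132; luminescence from HSF1-driven luciferase expression after 8 hours of MG132 stress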
T3 sequence (P38532 whole entry): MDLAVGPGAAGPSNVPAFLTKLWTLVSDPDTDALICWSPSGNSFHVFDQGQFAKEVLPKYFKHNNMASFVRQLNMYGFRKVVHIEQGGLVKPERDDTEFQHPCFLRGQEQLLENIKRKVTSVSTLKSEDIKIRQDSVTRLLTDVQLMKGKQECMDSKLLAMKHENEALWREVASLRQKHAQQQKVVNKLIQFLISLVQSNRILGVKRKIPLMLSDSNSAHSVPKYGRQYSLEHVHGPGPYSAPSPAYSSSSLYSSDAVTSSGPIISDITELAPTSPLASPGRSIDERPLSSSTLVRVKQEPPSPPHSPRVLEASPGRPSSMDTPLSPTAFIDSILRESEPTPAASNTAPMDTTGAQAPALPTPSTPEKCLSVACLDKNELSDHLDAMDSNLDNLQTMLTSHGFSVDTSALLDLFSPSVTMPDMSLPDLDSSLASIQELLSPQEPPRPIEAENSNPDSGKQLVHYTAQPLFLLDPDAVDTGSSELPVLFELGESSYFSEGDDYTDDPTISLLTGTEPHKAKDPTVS

[10] = molecular target: T2, Voltage-gated N-type calcium channel alpha-1B subunit/Amyloid beta A4 precursor protein-binding family A member 1; format: protein assay; remark: listed apart in the source
ORF 73 = molecular target: T4, ORF 73 (Human herpesvirus 8, UniProt O40947); test: KSHV LANA DNA-binding disruption – biochemical, fluorescence polarization, cherry-picked samples, dose response (AID 504725); parameters: species or system Human gammaherpesvirus 8;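 also: fluorescence polarization of a labeled DNA duplex reporting LANA DNA binding; potency is for inhibitors that block LANA binding to the DNA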
T4 sequence (O40947 whole entry): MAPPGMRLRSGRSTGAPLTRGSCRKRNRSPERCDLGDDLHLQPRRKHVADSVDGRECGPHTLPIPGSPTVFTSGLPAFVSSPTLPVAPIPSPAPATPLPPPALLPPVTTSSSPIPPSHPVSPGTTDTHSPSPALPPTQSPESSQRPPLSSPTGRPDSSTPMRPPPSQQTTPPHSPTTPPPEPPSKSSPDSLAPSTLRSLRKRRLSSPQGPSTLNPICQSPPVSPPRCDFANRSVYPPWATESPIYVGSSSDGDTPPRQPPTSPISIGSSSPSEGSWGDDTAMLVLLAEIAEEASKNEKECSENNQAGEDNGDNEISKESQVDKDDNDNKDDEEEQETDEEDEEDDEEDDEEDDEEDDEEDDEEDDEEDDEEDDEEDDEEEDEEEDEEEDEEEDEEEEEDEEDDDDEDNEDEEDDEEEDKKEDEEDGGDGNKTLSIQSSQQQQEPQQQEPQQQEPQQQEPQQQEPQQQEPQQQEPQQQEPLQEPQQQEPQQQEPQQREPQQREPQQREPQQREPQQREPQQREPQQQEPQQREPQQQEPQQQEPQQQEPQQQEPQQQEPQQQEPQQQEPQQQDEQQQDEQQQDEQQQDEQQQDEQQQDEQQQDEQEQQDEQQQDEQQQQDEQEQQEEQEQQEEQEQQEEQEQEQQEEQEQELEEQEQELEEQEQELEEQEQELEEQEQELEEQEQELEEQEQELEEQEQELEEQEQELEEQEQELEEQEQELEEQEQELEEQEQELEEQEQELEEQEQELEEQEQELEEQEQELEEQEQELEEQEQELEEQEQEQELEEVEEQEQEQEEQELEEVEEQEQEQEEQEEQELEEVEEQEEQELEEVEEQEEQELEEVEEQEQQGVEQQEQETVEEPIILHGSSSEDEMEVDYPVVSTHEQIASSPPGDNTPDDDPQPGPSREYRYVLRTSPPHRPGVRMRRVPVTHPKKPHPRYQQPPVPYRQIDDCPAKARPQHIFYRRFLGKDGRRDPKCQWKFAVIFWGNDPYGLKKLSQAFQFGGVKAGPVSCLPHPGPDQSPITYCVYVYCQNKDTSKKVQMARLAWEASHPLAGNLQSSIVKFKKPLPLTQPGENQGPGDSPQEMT

[11] = molecular target: T5, Endoribonuclease toxin MazF (Escherichia coli K-12, UniProt P0AE70); test: activation of MazEF endoribonuclease cleavage – biochemical, fluorescence, single-stranded RNA substrate, uHTS hits, dose response (AID 588481); format: functional
T5 sequence (P0AE70 whole entry): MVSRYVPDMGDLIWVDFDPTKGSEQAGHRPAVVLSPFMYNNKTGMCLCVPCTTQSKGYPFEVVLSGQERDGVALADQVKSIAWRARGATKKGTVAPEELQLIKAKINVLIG

[12] = molecular target: T5, Endoribonuclease toxin MazF; test: substrate-only fluorescence increase artefacts – biochemical, single-stranded RNase substrate, counter-screen for MazEF activator project, dose response (AID 588502); format: functional
Protein skinhead-1 = molecular target: T6, Protein skinhead-1 (Caenorhabditis elegans, UniProt P34707); format: functional
T6 sequence (P34707 whole entry): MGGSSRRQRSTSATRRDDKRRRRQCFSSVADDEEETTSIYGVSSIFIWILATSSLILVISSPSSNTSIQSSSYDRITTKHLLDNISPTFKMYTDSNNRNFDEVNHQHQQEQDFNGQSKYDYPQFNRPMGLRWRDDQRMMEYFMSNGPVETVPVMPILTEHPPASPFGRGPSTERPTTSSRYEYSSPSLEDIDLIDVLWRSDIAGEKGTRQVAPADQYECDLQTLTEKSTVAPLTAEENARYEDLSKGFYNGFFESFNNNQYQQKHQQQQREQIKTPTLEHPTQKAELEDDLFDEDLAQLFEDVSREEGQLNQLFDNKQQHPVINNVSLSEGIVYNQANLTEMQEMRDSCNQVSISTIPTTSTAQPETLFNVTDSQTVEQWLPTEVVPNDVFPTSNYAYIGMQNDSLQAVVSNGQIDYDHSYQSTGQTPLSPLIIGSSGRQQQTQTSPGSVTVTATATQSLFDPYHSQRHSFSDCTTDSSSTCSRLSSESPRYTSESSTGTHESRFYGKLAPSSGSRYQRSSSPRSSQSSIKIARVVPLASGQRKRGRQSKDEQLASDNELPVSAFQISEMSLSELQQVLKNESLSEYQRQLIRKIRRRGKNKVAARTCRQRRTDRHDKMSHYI

SUMO-activating enzyme [13] = molecular target: T7, SUMO-activating enzyme (Homo sapiens, UniProt Q9UBT2); test: blockers of UBC9-mediated SUMO conjugation – biochemical, AlphaScreen, SUMOylation inhibitor project, confirmation (AID 2018); format: functional
T7 sequence (Q9UBE0 whole entry): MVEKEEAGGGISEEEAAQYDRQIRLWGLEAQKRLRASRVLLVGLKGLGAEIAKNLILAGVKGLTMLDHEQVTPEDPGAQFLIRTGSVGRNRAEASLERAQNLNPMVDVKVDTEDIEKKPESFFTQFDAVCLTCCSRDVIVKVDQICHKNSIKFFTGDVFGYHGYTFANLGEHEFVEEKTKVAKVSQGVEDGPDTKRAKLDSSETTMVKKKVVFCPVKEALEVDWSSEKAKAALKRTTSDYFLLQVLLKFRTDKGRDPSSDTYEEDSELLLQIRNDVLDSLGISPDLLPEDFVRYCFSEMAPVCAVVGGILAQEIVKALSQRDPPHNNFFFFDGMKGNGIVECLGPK
T7 sequence (Q9UBT2 whole entry): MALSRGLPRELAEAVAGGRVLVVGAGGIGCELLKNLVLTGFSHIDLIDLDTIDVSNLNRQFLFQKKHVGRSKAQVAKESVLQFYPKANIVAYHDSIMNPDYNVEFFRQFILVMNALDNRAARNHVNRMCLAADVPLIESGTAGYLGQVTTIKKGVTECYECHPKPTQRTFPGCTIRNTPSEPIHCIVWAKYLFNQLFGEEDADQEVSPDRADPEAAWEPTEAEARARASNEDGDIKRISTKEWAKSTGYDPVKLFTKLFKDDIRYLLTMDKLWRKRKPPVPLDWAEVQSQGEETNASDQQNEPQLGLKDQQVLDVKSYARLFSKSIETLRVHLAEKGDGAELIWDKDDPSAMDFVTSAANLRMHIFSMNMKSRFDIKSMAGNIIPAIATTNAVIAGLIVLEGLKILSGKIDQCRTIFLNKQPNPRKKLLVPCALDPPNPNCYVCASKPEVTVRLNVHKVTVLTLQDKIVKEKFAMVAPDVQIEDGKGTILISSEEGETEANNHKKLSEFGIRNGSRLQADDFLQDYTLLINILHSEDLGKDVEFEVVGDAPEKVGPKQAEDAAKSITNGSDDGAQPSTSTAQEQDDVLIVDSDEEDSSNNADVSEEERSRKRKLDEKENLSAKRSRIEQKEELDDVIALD

SUMO-activating enzyme [14] = molecular target: T7, SUMO-activating enzyme; test: blockers of SAE1/SAE2–UBC9 SUMO transfer – biochemical, HTRF, uHTS, primary screen (AID 2006); format: protein-complex assay
[15] = molecular target: Induced myeloid leukemia cell differentiation protein Mcl-1 (Homo sapiens, UniProt Q07820); format: functional
Trypsin = Trypsin (Sus scrofa, UniProt P00761); test: trypsin protease activity blockade – biochemical, quenched peptide fluorescence, cherry-pick, selectivity assay for Rce1 protease inhibitor project, dose response (AID 488789)
Streptococcus = test: GAS UMAA2166 growth inhibition – luminescence, BacTiterGlo, counter-screen for streptokinase expression inhibitor project, dose response (AID 1915); format: functional, organism-based;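 also: potency for reduction of bacterial viability or growth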
Streptokinase A = molecular target: T8, Streptokinase A (Streptococcus pyogenes serotype M1, UniProt P10520); test: viability-normalized secreted streptokinase activity reduction – plasminogen activation absorbance, OD405, dose response (AID 1914); format: functional, Streptococcus pyogenes M1 GAS;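 also: secreted streptokinase activity via plasminogen activation per viability signal from cell pellet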
T8 sequence (P10520 whole entry): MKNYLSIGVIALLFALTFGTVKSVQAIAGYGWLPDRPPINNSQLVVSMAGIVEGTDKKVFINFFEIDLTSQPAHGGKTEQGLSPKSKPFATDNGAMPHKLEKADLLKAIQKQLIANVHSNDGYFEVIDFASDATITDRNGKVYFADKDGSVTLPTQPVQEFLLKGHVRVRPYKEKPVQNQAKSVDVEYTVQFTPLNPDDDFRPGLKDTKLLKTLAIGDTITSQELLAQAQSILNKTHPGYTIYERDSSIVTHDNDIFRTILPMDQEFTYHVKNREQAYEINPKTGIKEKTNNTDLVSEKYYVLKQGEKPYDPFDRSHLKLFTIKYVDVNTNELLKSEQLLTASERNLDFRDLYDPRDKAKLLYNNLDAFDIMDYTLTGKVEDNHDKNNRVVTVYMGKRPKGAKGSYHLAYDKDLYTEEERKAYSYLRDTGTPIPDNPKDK

X-box-binding protein 1 = molecular target: T9, X-box-binding protein 1 (Homo sapiens, UniProt P17861); format: functional, Cricetulus griseus;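 also: confirmatory dose-response counter-screen serving a CHOP assay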
T9 sequence (P17861 whole entry): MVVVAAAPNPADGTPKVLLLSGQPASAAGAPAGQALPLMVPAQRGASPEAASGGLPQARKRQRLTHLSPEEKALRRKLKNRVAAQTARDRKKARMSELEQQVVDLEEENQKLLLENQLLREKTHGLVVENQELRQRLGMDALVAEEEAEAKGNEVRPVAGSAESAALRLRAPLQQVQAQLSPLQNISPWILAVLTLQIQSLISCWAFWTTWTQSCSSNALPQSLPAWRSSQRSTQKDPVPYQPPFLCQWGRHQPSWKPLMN

[16] = test system: Streptococcus sp. 'group A'; test: Streptococcus pyogenes SK(-)GAS viability under kanamycin – luminescence, BacTiterGlo, confirmation, counter-screen for streptokinase expression inhibitor project, dose response (AID 1900); format: functional, organism-based

For `O=C(c1ccccc1)c1cc([N+](=O)[O-])ccc1N1CCOCC1`, the IC50 [1] was > 80 µM (inactive).
In the case of `CCC(=O)OC1c2ccccc2C(=O)N1Cc1ccccc1` (stereo not drawn), the IC50 [2] is reported as > 100 µM (inactive) and the IC50 [3] is reported as > 100 µM (not active).
With `Cc1nc([N+](=O)[O-])c(Br)n1CC(=O)c1ccccc1` the CC50 [4] was 40 µM (active), the IC50 (cells) was 10.8 µM (active) and the CC50 [5] was 18.6 µM (active).
For `CCOC(=O)c1c(NC(=O)c2ccccc2Cl)sc2c1CCc1ccccc1-2`, the IC50 [6] was > 100 µM (inactive).
In the case of `COC(=O)c1ccc(Sc2nnnn2-c2ccccc2)c([N+](=O)[O-])c1`, the CC50 [4] is reported as 20.5 µM (active), the IC50 (cells) is reported as 14.3 µM (active) and the CC50 [5] is reported as > 20 µM (active).
With `CNC(=O)C1C(S)=NC(N)=C(C#N)C1c1ccccc1` (stereo not drawn) the IC50 [7] was 1.68 µM (active), the AC50 [8] was > 195 µM (inactive) and the EC50 [9] was 19 µM (active). For the same compound, the IC50 [10] was > 50 µM (inactive).
For `CCC(=O)Oc1ccc2c(c1)O/C(=C\c1ccco1)C2=O`, the AC50 (ORF 73) was 14.1 µM (active), the EC50 [11] was > 99 µM (inactive) and the EC50 [12] was 31.5 µM (inactive).
With `CC1CCCC(NC(=O)c2cn(C)c3ccc(S(=O)(=O)N4CCCC4)cc3c2=O)C1C` (stereo not drawn) the IC50 [2] was > 100 µM (inactive) and the IC50 [3] was > 100 µM (not active).
For `CC(=O)c1cnc(-c2ccccc2)s1`, the IC50 [2] was > 100 µM (inactive) and the IC50 [3] was > 100 µM (not active).
With `Nc1cccc2cc(S(=O)(=O)O)ccc12` the AC50 (ORF 73) was 108 µM (active) and the IC50 (Protein skinhead-1) was > 100 µM (inactive).
With `N=C1S/C(=C\c2ccco2)C(=O)N1c1ccc2c(c1)OCO2` the IC50 (SUMO-activating enzyme [13]) was 13.4 µM (active), the IC50 (SUMO-activating enzyme [14]) was 39.9 µM (active) and the IC50 [15] was 9.96 µM (active).
In the case of `COc1ccc(S(=O)(=O)NCC2CCCO2)cc1NC(=O)c1ccccc1F` (stereo not drawn), the AC50 (Trypsin) is reported as 33 µM (active).
For `CCc1nc2c(cnn2-c2ccc(Cl)cc2)c(=O)n1-c1ccc(OC)cc1`, the EC50 (Streptococcus) was > 150 µM (not active), the EC50 (Streptokinase A) was > 150 µM (not active) and the “Absolute IC50 (XBP1)” value (X-box-binding protein 1) was 10 µM. For the same compound, the EC50 [16] was 28.3 µM (active).
For `C=CCOC(=O)/C=C/C(=O)NC(N)=O`, the IC50 [7] was 7.61 µM (active) and the IC50 [10] was 2.95 µM (active).
